“And” between values parts separate entries of the source, which are not always exact repeats. Equal entries are not always repeated. The source made the active and inactive calls. No rule for the calls is given here.
Test system: rodent lifetime carcinogenesis bioassay, tumor incidence TD50
Test: chronic cancer bioassays in animals – CPDB, compiled studies (AID 1745844)

CCCCCN(N=O)C(=O)OCC showed a TD50 (rat, strain Donryu, females, in drinking water, site: any site (literature study), lesion: several types, types named in the paper, dosed 52 weeks, study length 60 weeks) of 0.336 mg/kg/day, a TD50 (rat, strain Donryu, females, in drinking water, site: esophagus, lesion: papilloma, dosed 52 weeks, study length 60 weeks) of 1.46 mg/kg/day and a TD50 (rat, strain Donryu, females, in drinking water, site: esophagus, lesion: squamous-cell carcinoma, dosed 52 weeks, study length 60 weeks) of 1.01 mg/kg/day. It also gave a TD50 (rat, strain Donryu, females, in drinking water, site: forestomach, lesion: papilloma, dosed 52 weeks, study length 60 weeks) of 1.54 mg/kg/day, a TD50 (rat, strain Donryu, females, in drinking water, site: forestomach, lesion: squamous-cell carcinoma, dosed 52 weeks, study length 60 weeks) of 2.81 mg/kg/day and a TD50 (rat, strain Donryu, females, in drinking water, site: several sites, sites named in the paper, lesion: papilloma, dosed 52 weeks, study length 60 weeks) of 1.7 mg/kg/day. For the same compound, the TD50 (rat, strain Donryu, females, in drinking water, site: several sites, sites named in the paper, lesion: squamous-cell carcinoma, dosed 52 weeks, study length 60 weeks) was 1.09 mg/kg/day.

For CCN=c1cc2oc3cc(NCC)c(C)cc3c(-c3ccccc3C(=O)OCC)c-2cc1C, the carcinogen call (mouse, strain B6C3F1, females, in feed, site: any site (literature study), lesion: several types, types named in the paper, dosed 103 weeks, study length 105 weeks) was “negative (inactive)”, the TD50 (mouse, strain B6C3F1, males, in feed, site: thyroid gland, lesion: follicular-cell adenoma + follicular-cell carcinoma, dosed 103 weeks, study length 105 weeks) was 1210 mg/kg/day (inactive) and the TD50 (rat, strain Fischer 344, females, in feed, site: adrenal medulla, lesion: pheochromocytoma, malignant + pheochromocytoma, benign, dosed 103 weeks, study length 105 weeks) was 47.1 mg/kg/day. For the same compound, the TD50 (rat, strain Fischer 344, males, in feed, site: liver, lesion: hepatocellular adenoma + hepatocellular carcinoma + neoplastic nodule, dosed 103 weeks, study length 105 weeks) was 553 mg/kg/day and the TD50 (rat, strain Fischer 344, males, in feed, site: skin, lesion: keratoacanthoma, dosed 103 weeks, study length 105 weeks) was 34.5 mg/kg/day.

With Nc1c(F)c(N)c(F)c(F)c1F the TD50 (mouse, strain CD-1 HaM/ICR, females, in feed, site: liver, lesion: several types, types named in the paper, dosed 77 weeks, study length 94 weeks) was 6500 mg/kg/day (inactive), the carcinogen call (mouse, strain CD-1 HaM/ICR, females, in feed, site: lung, lesion: several types, types named in the paper, dosed 77 weeks, study length 94 weeks) was “negative (inactive)” and the TD50 (mouse, strain CD-1 HaM/ICR, males, in feed, site: any site (literature study), lesion: several types, types named in the paper, dosed 77 weeks, study length 94 weeks) was 331 mg/kg/day. For the same compound, the TD50 (mouse, strain CD-1 HaM/ICR, males, in feed, site: liver, lesion: hepatoma, dosed 77 weeks, study length 94 weeks) was 86.3 mg/kg/day and 109 mg/kg/day, the TD50 (mouse, strain CD-1 HaM/ICR, males, in feed, site: liver, lesion: several types, types named in the paper, dosed 77 weeks, study length 94 weeks) was 78.3 mg/kg/day and the TD50 (mouse, strain CD-1 HaM/ICR, males, in feed, site: lung, lesion: several types, types named in the paper, dosed 77 weeks, study length 94 weeks) was 1130 mg/kg/day (inactive). For the same compound, the TD50 (rat, strain Charles River CD (Sprague-Dawley), males, in feed, site: any site (literature study), lesion: several types, types named in the paper, dosed 77 weeks, study length 98 weeks) was 14.6 mg/kg/day (inactive) and the carcinogen call (rat, strain Charles River CD (Sprague-Dawley), males, in feed, site: liver, lesion: several types, types named in the paper, dosed 77 weeks, study length 98 weeks) was “negative (inactive)”.

CN(N=O)C(=O)Nc1nc2ccccc2s1 gave a TD50 (rat, strain Wistar, both sexes, by gavage, site: forestomach, lesion: papilloma, dosed 51 weeks, study length 58 weeks) of 3.75 mg/kg/day, a TD50 (rat, strain Wistar, both sexes, by gavage, site: forestomach, lesion: several types, types named in the paper, dosed 51 weeks, study length 58 weeks) of 1.13 mg/kg/day and a TD50 (rat, strain Wistar, both sexes, by gavage, site: forestomach, lesion: squamous-cell carcinoma, dosed 51 weeks, study length 58 weeks) of 1.48 mg/kg/day. It also gave a TD50 (rat, strain Wistar, both sexes, by gavage, site: liver, lesion: several types, types named in the paper, dosed 51 weeks, study length 58 weeks) of 11.3 mg/kg/day.

Nc1ncc([N+](=O)[O-])s1 was tested, and the carcinogen call (mouse, strain B6C3F1, females, in feed, site: any site (literature study), lesion: several types, types named in the paper, dosed 104 weeks, study length 104 weeks) was “negative (inactive)”, the TD50 (mouse, strain B6C3F1, females, in feed, site: liver, lesion: hepatocellular adenoma + hepatocellular carcinoma + neoplastic nodule, dosed 104 weeks, study length 104 weeks) was 109 mg/kg/day and the TD50 (mouse, strain B6C3F1, females, in feed, site: lung, lesion: alveolar/bronchiolar adenoma + alveolar/bronchiolar carcinoma, dosed 104 weeks, study length 104 weeks) was 63.5 mg/kg/day. The carcinogen call (mouse, strain B6C3F1, males, in feed, site: any site (literature study), lesion: several types, types named in the paper, dosed 104 weeks, study length 104 weeks) was “negative (inactive)”, the TD50 (rat, strain Fischer 344, females, in feed, site: any site (literature study), lesion: several types, types named in the paper, dosed 110 weeks, study length 111 weeks) was 326 mg/kg/day and the TD50 (rat, strain Fischer 344, females, in feed, site: uterus, lesion: endometrial stromal polyp, dosed 110 weeks, study length 111 weeks) was 57.2 mg/kg/day (inactive). It also gave a TD50 (rat, strain Fischer 344, males, in feed, site: all sites + multiple organs, lesion: lymphocytic leukemia + malignant lymphoma + undifferentiated leukemia, dosed 110 weeks, study length 111 weeks) of 445 mg/kg/day, a TD50 (rat, strain Fischer 344, males, in feed, site: all sites, lesion: leukemia + lymphoma, dosed 110 weeks, study length 111 weeks) of 27.6 mg/kg/day and a TD50 (rat, strain Fischer 344, males, in feed, site: any site (literature study), lesion: several types, types named in the paper, dosed 110 weeks, study length 111 weeks) of 32.3 mg/kg/day. It also gave a TD50 (rat, strain Fischer 344, males, in feed, site: liver, lesion: hepatocellular adenoma + hepatocellular carcinoma + neoplastic nodule, dosed 110 weeks, study length 111 weeks) of 318 mg/kg/day, a TD50 (rat, strain Fischer 344, males, in feed, site: multiple organs, lesion: granulocytic leukemia, dosed 110 weeks, study length 111 weeks) of 90.2 mg/kg/day and a TD50 (rat, strain Sprague-Dawley, females, in feed, site: any site (literature study), lesion: several types, types named in the paper, dosed 46 weeks, study length 66 weeks) of 32.5 mg/kg/day. For the same compound, the TD50 (rat, strain Sprague-Dawley, females, in feed, site: kidney/pelvis, lesion: transitional-cell carcinoma, dosed 46 weeks, study length 66 weeks) was 157 mg/kg/day, the TD50 (rat, strain Sprague-Dawley, females, in feed, site: lung, lesion: alveolar-cell carcinoma, dosed 46 weeks, study length 66 weeks) was 157 mg/kg/day and the TD50 (rat, strain Sprague-Dawley, females, in feed, site: mammary gland, lesion: several types, types named in the paper, dosed 46 weeks, study length 66 weeks) was 44.6 mg/kg/day.

For CCOc1ccc2c(c1)C(C)=CC(C)(C)N2, the carcinogen call (rat, strain F344/DuCrj, males, in feed, site: esophagus, lesion: one or several types, types not named, dosed 52 weeks, study length 52 weeks) was “negative (inactive)”, the carcinogen call (rat, strain F344/DuCrj, males, in feed, site: forestomach, lesion: one or several types, types not named, dosed 52 weeks, study length 52 weeks) was “negative (inactive)” and the carcinogen call (rat, strain F344/DuCrj, males, in feed, site: liver, lesion: one or several types, types not named, dosed 52 weeks, study length 52 weeks) was “negative (inactive)”. The carcinogen call (rat, strain Fischer 344, females, in feed, site: kidney, lesion: one or several types, types not named, dosed 58 weeks, study length 58 weeks) was “negative (inactive)”, the carcinogen call (rat, strain Fischer 344, females, in feed, site: kidney, lesion: one or several types, types not named, dosed 78 weeks, study length 78 weeks) was “negative (inactive)” and the carcinogen call (rat, strain Fischer 344, males, in feed, site: kidney, lesion: one or several types, types not named, dosed 58 weeks, study length 58 weeks) was “negative (inactive)”. The carcinogen call (rat, strain Fischer 344, males, in feed, site: kidney, lesion: one or several types, types not named, dosed 78 weeks, study length 78 weeks) was “negative (inactive)”.

With O=[N+]([O-])c1ccc(NCCO)c(OCCO)c1 the carcinogen call (mouse, strain B6C3F1, females, in feed, site: any site (literature study), lesion: several types, types named in the paper, dosed 103 weeks, study length 104 weeks) was “negative (inactive)”, the carcinogen call (mouse, strain B6C3F1, males, in feed, site: any site (literature study), lesion: several types, types named in the paper, dosed 103 weeks, study length 104 weeks) was “negative (inactive)” and the carcinogen call (rat, strain Fischer 344, females, in feed, site: any site (literature study), lesion: several types, types named in the paper, dosed 103 weeks, study length 104 weeks) was “negative (inactive)”. The TD50 (rat, strain Fischer 344, males, in feed, site: pituitary gland, lesion: pars distalis adenoma, dosed 103 weeks, study length 104 weeks) was 465 mg/kg/day.

With O=C(OC[C@@H]1O[C@H](OC(=O)c2cc(O)c(O)c(OC(=O)c3cc(O)c(O)c(O)c3)c2)[C@@H](OC(=O)c2cc(O)c(O)c(OC(=O)c3cc(O)c(O)c(O)c3)c2)[C@H](OC(=O)c2cc(O)c(O)c(OC(=O)c3cc(O)c(O)c(O)c3)c2)[C@H]1OC(=O)c1cc(O)c(O)c(OC(=O)c2cc(O)c(O)c(O)c2)c1)c1cc(O)c(O)c(OC(=O)c2cc(O)c(O)c(O)c2)c1 the TD50 (rat, strain F344/DuCrj, females, in drinking water, site: any site (literature study), lesion: several types, types named in the paper, dosed 104 weeks, study length 114 weeks) was 620 mg/kg/day (inactive), the TD50 (rat, strain F344/DuCrj, females, in drinking water, site: liver, lesion: hepatocellular adenoma, dosed 104 weeks, study length 114 weeks) was 16000 mg/kg/day (inactive) and the carcinogen call (rat, strain F344/DuCrj, males, in drinking water, site: any site (literature study), lesion: several types, types named in the paper, dosed 104 weeks, study length 114 weeks) was “negative (inactive)”. The carcinogen call (rat, strain F344/DuCrj, males, in drinking water, site: liver, lesion: hepatocellular adenoma, dosed 104 weeks, study length 114 weeks) was “negative (inactive)”.

In the case of C=C(C)[C@H]1CC=C(C)C(=O)C1, the carcinogen call (mouse, strain B6C3F1, females, by gavage, site: any site (literature study), lesion: several types, types named in the paper, dosed 103 weeks, study length 105 weeks) is reported as “negative (inactive)”, the carcinogen call (mouse, strain B6C3F1, males, by gavage, site: any site (literature study), lesion: several types, types named in the paper, dosed 103 weeks, study length 105 weeks) is reported as “negative (inactive)” and the TD50 (mouse, strain B6C3F1, males, by gavage, site: liver, lesion: hepatocellular adenoma + hepatocellular carcinoma + neoplastic nodule, dosed 103 weeks, study length 105 weeks) is reported as 63800 mg/kg/day.

O=[N+]([O-])c1ccc(-c2nc(N(CCO)CCO)c3ccccc3n2)s1 gave a TD50 (rat, strain Sprague-Dawley, males, in feed, site: any site (literature study), lesion: several types, types named in the paper, dosed 50 weeks, study length 52 weeks) of 1.1 mg/kg/day, a TD50 (rat, strain Sprague-Dawley, males, in feed, site: mammary gland, lesion: adenocarcinoma, dosed 50 weeks, study length 52 weeks) of 11.5 mg/kg/day and a TD50 (rat, strain Sprague-Dawley, males, in feed, site: mammary gland, lesion: several types, types named in the paper, dosed 50 weeks, study length 52 weeks) of 6.45 mg/kg/day. For the same compound, the TD50 (rat, strain Sprague-Dawley, males, in feed, site: small intestine, lesion: leiomyosarcoma, dosed 50 weeks, study length 52 weeks) was 3.6 mg/kg/day and the TD50 (rat, strain Sprague-Dawley, males, in feed, site: small intestine, lesion: sarcoma, dosed 50 weeks, study length 52 weeks) was 3.14 mg/kg/day.
